# Experimental data from PubChem BioAssay AID196 (DTP/NCI, 2004).
# Where “and” joins values, the source holds several entries; their conditions need not be identical. Identical values can stand only once. Inconclusive results and toxic doses are left out.
# Test system: BDF1 mice, intracerebral B16 melanoma, median survival T/C
# Assay: NCI In Vivo Anticancer Drug Screen. Data for tumor model B16 Melanoma (intracerebral) in B6D2F1 (BDF1) mice
# Settings: endpoint: median survival time, higher = longer survival
# Protocol: The antitumor activity of compounds was measured in mice bearing transplantable tumors. Survival or tumor size were measured and the results are expressed as the measurement made in the treated group (T) divided by the measurement made in the vehicle treated control group (C). The tumor model used in this assay is B16 Melanoma (intracerebral) in B6D2F1 (BDF1) mice
# [1] = dose: 8.0 mg/kg/injection, schedule: Q01DX009 (ip), vehicle: Klucel (hydroxypropylcellulose) (HPC)
# [2] = dose: 16.0 mg/kg/injection, schedule: Q01DX009 (ip), vehicle: Klucel (hydroxypropylcellulose) (HPC)
# [3] = dose: 32.0 mg/kg/injection, schedule: Q01DX009 (ip), vehicle: Klucel (hydroxypropylcellulose) (HPC)
# [4] = dose: 64.0 mg/kg/injection, schedule: Q01DX009 (ip), vehicle: Klucel (hydroxypropylcellulose) (HPC)
# [5] = dose: 128.0 mg/kg/injection, schedule: Q01DX009 (ip), vehicle: Klucel (hydroxypropylcellulose) (HPC)
# [6] = dose: 256.0 mg/kg/injection, schedule: Q01DX009 (ip), vehicle: Klucel (hydroxypropylcellulose) (HPC)
# [7] = dose: 3.12 mg/kg/injection, schedule: Q01DX009 (ip), vehicle: other
# [8] = dose: 6.25 mg/kg/injection, schedule: Q01DX009 (ip), vehicle: other
# [9] = dose: 12.5 mg/kg/injection, schedule: Q01DX009 (ip), vehicle: other
# [10] = dose: 25.0 mg/kg/injection, schedule: Q01DX009 (ip), vehicle: other
# [11] = dose: 50.0 mg/kg/injection, schedule: Q01DX009 (ip), vehicle: other
# [12] = dose: 16.0 mg/kg/injection, schedule: Q01DX005 (ip), vehicle: saline with Tween-80
# [13] = dose: 32.0 mg/kg/injection, schedule: Q01DX005 (ip), vehicle: saline with Tween-80
# [14] = dose: 64.0 mg/kg/injection, schedule: Q01DX005 (ip), vehicle: saline with Tween-80
# [15] = dose: 128.0 mg/kg/injection, schedule: Q01DX005 (ip), vehicle: saline with Tween-80
# [16] = dose: 100.0 mg/kg/injection, schedule: Q01DX009 (ip), vehicle: other
# [17] = dose: 256.0 mg/kg/injection, schedule: Q01DX005 (ip), vehicle: saline with Tween-80
smiles,measurement,setting,value
CCCCCC(=O)O[C@]1(C(C)=O)CC[C@H]2[C@@H]3CCC4=CC(=O)CC[C@]4(C)[C@H]3CC[C@@]21C,T/C,[1],100 % of control
same,T/C,[2],101 % of control
same,T/C,[3],100 % of control
same,T/C,[4],100 % of control
same,T/C,[5],98 % of control
same,T/C,[6],94 % of control
same,T/C,"dose: 512.0 mg/kg/injection, schedule: Q01DX009 (ip), vehicle: Klucel (hydroxypropylcellulose) (HPC)",101 % of control
CN(CO)c1nc(N(C)CO)nc(N(C)CO)n1,T/C,"dose: 50.0 mg/kg/injection, schedule: Q01DX009 (ip), vehicle: Klucel (hydroxypropylcellulose) (HPC)",100 % of control and 104 % of control
same,T/C,"dose: 100.0 mg/kg/injection, schedule: Q01DX009 (ip), vehicle: Klucel (hydroxypropylcellulose) (HPC)",120 % of control and 106 % of control
CN(C)N=Nc1ccnc2ccc(I)cc12,T/C,[7],112 % of control
same,T/C,[8],110 % of control
same,T/C,[9],95 % of control
same,T/C,[10],110 % of control
same,T/C,[11],109 % of control
CCCCCCC(=O)O[C@H]1CC[C@H]2[C@@H]3CCC4=CC(=O)CC[C@]4(C)[C@H]3CC[C@]12C,T/C,[1],107 % of control
same,T/C,[2],98 % of control
same,T/C,[3],100 % of control
same,T/C,[4],96 % of control
same,T/C,[5],103 % of control
CN(C)c1nc(N(C)C)nc(N(C)C)n1,T/C,"dose: 100.0 mg/kg/injection, schedule: Q01DX005 (ip), vehicle: saline with Tween-80",91 % of control
CC/C(=C(/CC)c1ccc(O)cc1)c1ccc(O)cc1,T/C,[1],106 % of control
same,T/C,[12],100 % of control
same,T/C,[2],102 % of control
same,T/C,[13],99 % of control and 111 % of control
same,T/C,[3],95 % of control
same,T/C,[14],96 % of control and 103 % of control
same,T/C,[4],106 % of control
same,T/C,[15],88 % of control and 102 % of control
same,T/C,[5],104 % of control
same,T/C,[6],111 % of control
COc1cc2c(c3c1c(=O)c1ccccc1n3C)C=CC(C)(C)O2,T/C,"dose: 16.0 mg/kg/injection, schedule: Q01DX005 (ip), vehicle: Klucel (hydroxypropylcellulose) (HPC)",121 % of control
same,T/C,"dose: 32.0 mg/kg/injection, schedule: Q01DX005 (ip), vehicle: Klucel (hydroxypropylcellulose) (HPC)",104 % of control
same,T/C,"dose: 64.0 mg/kg/injection, schedule: Q01DX005 (ip), vehicle: Klucel (hydroxypropylcellulose) (HPC)",115 % of control
CN(C)N=Nc1ccc2c(c1)N(C)c1ccc(Cl)cc1S2,T/C,[8],97 % of control
same,T/C,[9],101 % of control
same,T/C,[10],102 % of control
same,T/C,[16],112 % of control
CC(=O)OCC1C(=O)OCC1C(=O)N1Cc2cc3ccccc3nc2C1 (configuration not stated),T/C,"dose: 8.0 mg/kg/injection, schedule: Q01DX009 (ip), vehicle: saline with Tween-80",111 % of control
same,T/C,"dose: 16.0 mg/kg/injection, schedule: Q01DX009 (ip), vehicle: saline with Tween-80",99 % of control
same,T/C,"dose: 32.0 mg/kg/injection, schedule: Q01DX009 (ip), vehicle: saline with Tween-80",103 % of control
same,T/C,"dose: 64.0 mg/kg/injection, schedule: Q01DX009 (ip), vehicle: saline with Tween-80",95 % of control
same,T/C,"dose: 128.0 mg/kg/injection, schedule: Q01DX009 (ip), vehicle: saline with Tween-80",93 % of control
N=[N+]=CC(=O)CCC(NC(=O)C(CCC(=O)C=[N+]=N)NC(=O)CCC(N)C(=O)O)C(=O)O (configuration not stated),T/C,"dose: 0.05 mg/kg/injection, schedule: Q01DX005 (ip), vehicle: Klucel (hydroxypropylcellulose) (HPC)",124 % of control and 108 % of control
same,T/C,"dose: 0.1 mg/kg/injection, schedule: Q01DX005 (ip), vehicle: Klucel (hydroxypropylcellulose) (HPC)",97 % of control and 108 % of control
same,T/C,"dose: 0.2 mg/kg/injection, schedule: Q01DX005 (ip), vehicle: Klucel (hydroxypropylcellulose) (HPC)",120 % of control and 111 % of control
same,T/C,"dose: 0.4 mg/kg/injection, schedule: Q01DX005 (ip), vehicle: Klucel (hydroxypropylcellulose) (HPC)",112 % of control
CN(C)N=Nc1ccnc2ccc(Br)cc12,T/C,[7],102 % of control
same,T/C,[8],102 % of control
same,T/C,[9],97 % of control
same,T/C,[10],107 % of control
same,T/C,[11],102 % of control
O=C1c2c(O)ccc(O)c2C(=O)c2c(NCCNCCO)ccc(NCCNCCO)c21,T/C,"dose: 0.5 mg/kg/injection, schedule: Q01DX009 (ip), vehicle: saline",90 % of control
same,T/C,"dose: 1.0 mg/kg/injection, schedule: Q01DX009 (ip), vehicle: saline",96 % of control
same,T/C,"dose: 2.0 mg/kg/injection, schedule: Q01DX009 (ip), vehicle: saline",102 % of control
C[n+]1c2ccccc2nc2c(N)cc(N)cc21,T/C,"dose: 4.0 mg/kg/injection, schedule: Q01DX005 (ip), vehicle: suspension in saline",93 % of control
same,T/C,"dose: 8.0 mg/kg/injection, schedule: Q01DX005 (ip), vehicle: suspension in saline",92 % of control and 98 % of control
same,T/C,"dose: 16.0 mg/kg/injection, schedule: Q01DX005 (ip), vehicle: suspension in saline",100 % of control and 103 % of control
same,T/C,"dose: 32.0 mg/kg/injection, schedule: Q01DX005 (ip), vehicle: suspension in saline",93 % of control and 97 % of control
O=[N+]([O-])O.[Ga],T/C,"dose: 32.0 mg/kg/injection, schedule: Q01DX005 (ip), vehicle: saline",112 % of control
same,T/C,"dose: 64.0 mg/kg/injection, schedule: Q01DX005 (ip), vehicle: saline",93 % of control and 112 % of control
same,T/C,"dose: 128.0 mg/kg/injection, schedule: Q01DX005 (ip), vehicle: saline",103 % of control
CCCCN(C)N=Nc1ccc([N+](=O)[O-])cc1C(N)=O,T/C,[13],121 % of control
same,T/C,[14],116 % of control
same,T/C,[17],154 % of control
same,T/C,"dose: 512.0 mg/kg/injection, schedule: Q01DX005 (ip), vehicle: saline with Tween-80",152 % of control
COc1ccc(C(=O)/C(Br)=C/C(=O)O)cc1,T/C,"dose: 10.0 mg/kg/injection, schedule: Q01DX005 (ip), vehicle: saline",91 % of control and 105 % of control
same,T/C,"dose: 20.0 mg/kg/injection, schedule: Q01DX005 (ip), vehicle: saline",90 % of control and 93 % of control
same,T/C,"dose: 40.0 mg/kg/injection, schedule: Q01DX005 (ip), vehicle: saline",97 % of control and 99 % of control
CN=S(=O)(OCCCCCOS(=O)(=NC)c1ccccc1)c1ccccc1 (configuration not stated),T/C,"dose: 6.25 mg/kg/injection, schedule: Q01DX009 (ip), vehicle: saline with Tween-80",109 % of control
same,T/C,"dose: 12.5 mg/kg/injection, schedule: Q01DX009 (ip), vehicle: saline with Tween-80",91 % of control
same,T/C,"dose: 25.0 mg/kg/injection, schedule: Q01DX009 (ip), vehicle: saline with Tween-80",100 % of control
CN(N=O)C(N)=O,T/C,"dose: 1.56 mg/kg/injection, schedule: Q01DX009 (ip), vehicle: saline",118 % of control
same,T/C,"dose: 6.25 mg/kg/injection, schedule: Q01DX009 (ip), vehicle: saline",112 % of control
same,T/C,"dose: 25.0 mg/kg/injection, schedule: Q01DX009 (ip), vehicle: saline",168 % of control
CN(C)N=Nc1ccc2c(c1)N(C)c1ccc(F)cc1S2,T/C,[8],90 % of control
same,T/C,[9],105 % of control
same,T/C,[10],112 % of control
same,T/C,[11],105 % of control
same,T/C,[16],112 % of control
CN(Cc1cnc2nc(N)nc(N)c2n1)c1ccc(C(=O)N[C@@H](CCC(=O)O)C(=O)O)cc1,T/C,"dose: 0.38 mg/kg/injection, schedule: Q01DX009 (ip), vehicle: saline",108 % of control
same,T/C,"dose: 0.5 mg/kg/injection, schedule: Q01DX009 (ip), vehicle: sodium bicarbonate",104 % of control
same,T/C,"dose: 0.75 mg/kg/injection, schedule: Q01DX009 (ip), vehicle: saline",100 % of control and 104 % of control
same,T/C,"dose: 1.0 mg/kg/injection, schedule: Q01DX009 (ip), vehicle: sodium bicarbonate",100 % of control
same,T/C,"dose: 1.5 mg/kg/injection, schedule: Q01DX009 (ip), vehicle: saline",95 % of control and 100 % of control
same,T/C,"dose: 2.0 mg/kg/injection, schedule: Q01DX009 (ip), vehicle: sodium bicarbonate",95 % of control
same,T/C,"dose: 3.0 mg/kg/injection, schedule: Q01DX009 (ip), vehicle: saline",112 % of control
same,T/C,"dose: 4.0 mg/kg/injection, schedule: Q01DX009 (ip), vehicle: sodium bicarbonate",100 % of control
C#CCN(C)/N=N/c1nc[nH]c1C(N)=O,T/C,[12],107 % of control
same,T/C,[13],104 % of control
same,T/C,[14],110 % of control
same,T/C,[15],109 % of control
same,T/C,[17],100 % of control
